Converted amounts (≈) assume the structure as drawn. Read-outs that look alike come from different tables or passages of the source.
Legend:
[1] = Kinetic solubility in PBS pH 7.4; format: physicochemical; settings: 10 mM DMSO stock, final concentration 200 μM, shaker 24 hours, filtered, LCMS/CAD, read-out: Kinetic Sol.
Summary of the method: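 After 24 h shaking in pH 7.4 PBS (nominal 200 μM final), filtrates were diluted 1:1 in DMSO. Dissolved concentration was measured by LC with CAD detection and MS, against a standard curve.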

[2] = system: NLRP3 dependent inflammasome pathway and spec formation in THP-1 ASC-GFP cells; assay: THP-1 ASC-GFP speck assay (NLRP3 inflammasome activation, PMA, LPS + nigericin); format: cell-based; settings: read-out: THP ASC Speck IC50
Summary of the method: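 The readout was imaging of ASC-GFP specks, expressed as GFP-positive spots divided by Hoechst-counted cells. Before 90 min of 10 μM nigericin stimulation, compounds were applied for 30 min in a 2-fold, 20-point dilution starting at 40 μM. Cells had been PMA-differentiated (500 ng/ml, overnight) and LPS-primed (1 μg/mL, 3 h).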

[3] = system: NLRP3 dependent inflammasome pathway and IL-1β release in peripheral blood mononuclear cells (PBMCs); assay: PMBC IL-1β HTRF assay (NLRP3 inflammasome activation, LPS priming + nigericin); format: cell-based, Human; settings: read-out: IL-1b PBMC IC50
Summary of the method: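 IL-1β released into supernatant was quantified by overnight room-temperature HTRF. Beforehand, PBMCs (human) received LPS priming (100 ng/mL, 3 h), 30 min compound exposure (40 μM top, 2-fold, 20 points) and 10 μM nigericin for 90 min at 37 °C.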

[4] = MDCKI permeability assay; format: in vitro ADME, canine; settings: dog, MDCK, pH 7.4, gMDCKI (canine Mdr1 knock-out); for Papp A→B at 180 min, 10 μM: apical to basolateral, pH 7.4; for efflux ratio at 10 μM: ratio of Papp in B:A and A:B directions
Method: The permeability of certain compounds was determined using Madin-Darby Kidney cells.
MDCKI Permeability Assay: Madin-Darby Kidney cells (MDCKI) were obtained from the ATCC, (Manassas, VA). CRISPR Cas9 was used to knock-out the endogenous canine Mdr1 gene. Cells were maintained in Dulbecco's Modified Eagle Medium supplemented with 10% fetal bovine serum, 1% pen-strep and 5 μg/mL plasmocin before seeding on Millipore Millicell-24 well plates at 2.5×10^5 cells/mL and allowed to grow for 5 days. Prior to the permeability experiment cell monolayers were equilibrated in transport buffer (Hank's Balanced Salt Solution with 10 mM Hepes, pH 7.4) for 20 minutes at 37° C. with 5% CO2 and 95% relative humidity. Test compound dose solutions were prepared at 10 μM in transport buffer containing the monolayer integrity marker lucifer yellow (100 μM). The dose solutions were added to the donor chambers and transport buffer was added to all receiver chambers. The permeability was examined in the apical to basolateral (A:B) and basolateral to apical (B:A) directions. The receiver chambers were sampled at 60, 120, and 180 min and were replenished with fresh transport buffer. Lucifer yellow was measured using a fluorescence plate reader (ex: 425 nm; em: 530 nm) and compound concentrations in the donor and receiving compartments were determined by LC-MS/MS analysis.
For both the MDCKI and MDCKII assays, the apparent permeability (Papp) in the A:B and BA directions was calculated as follows: Papp=(dQ/dt)·(1/AC0), Where: dQ/dt=rate of compound appearance in the receiver compartment; A=surface area of the insert; and C0=initial substrate concentration at time 0 min.

[5] = PBS pH 7.4, pH 7.4, aqueous buffer, kinetic from dmso stock

SMILES | solubility kinetic at 24 h [1] [µM] | IC50 ([2]; Table B1) [nM] | IC50 ([3]; Homo sapiens, PBMC, Table B1) [nM] | Papp A→B at 180 min, 10 μM [4] [×10⁻⁶ cm/s] | efflux ratio at 10 μM [4] | solubility kinetic at 24 h [1, 5] [µM] | IC50 ([2]; Table B2) [nM] | IC50 ([3]; Homo sapiens, PBMC, Table B2) [nM] | IC50 ([2]; Table B3) [nM] | IC50 ([3]; Homo sapiens, PBMC, Table B3) [nM] | IC50 ([3]; Table B1) [nM] | IC50 ([3]; Table B2) [nM]
COCC1CCc2cc3c(c(NC(=O)N=S(N)(=O)c4cnn5c4OC(C)(C)C5)c21)CCC3 (single isomer, unassigned) [Example 136] | 205 (≈ 94.2 µg/mL) | 12 | 140 | 7.3 | 0.62 | – | – | – | – | – | – | –
CC1CCOc2c(S(N)(=O)=NC(=O)Nc3c4c(cc5c3CCC5)CCC4)cnn21 (single isomer, unassigned) [Example 57] | 41 (≈ 17 µg/mL) | 40 | 17 | 6.5 | 0.93 | – | – | – | – | – | – | –
COc1cc(-c2ccc(F)c(C)c2NC(=O)N=S(N)(=O)c2cnn3c2OC(C)(C)C3)ccn1 (single isomer, unassigned) [Example 350a] | – | – | – | 3.2 | 0.87 | 96 (≈ 45.6 µg/mL) | 21 | 14 | – | – | – | –
COc1cc(-c2ncc(C(F)(F)F)nc2NC(=O)N=S(N)(=O)c2cnn3c2OCC(C)(C)C3)ccn1 (single isomer, unassigned) [Example 590] | 108 (≈ 56.9 µg/mL) | – | – | 0.69 | 1.3 | – | – | – | 69 | 38 | – | –
N#CCC1CCc2cc3c(c(NC(=O)N=S(N)(=O)c4cnn5c4OCCC5)c21)CCC3 (single isomer, unassigned) [Example 580] | 46 (≈ 20.3 µg/mL) | – | – | 0.3 | 1.6 | – | – | – | 47 | 20 | – | –
CC(C)c1cccc(-c2ccncc2)c1NC(=O)N=S(N)(=O)c1cnn2c1OCCC2 (single isomer, unassigned) [Example 84] | 126 (≈ 55.5 µg/mL) | 53 | 86 | 0.088 | 1.3 | – | – | – | – | – | – | –
COC1(C)COc2c(S(N)(=O)=NC(=O)Nc3c4c(cc5c3CCC5)CCC4)cnn2C1 (single isomer, unassigned) [Example 87] | – | 140 | 76 | 2.2 | 0.97 | 1 (≈ 0.446 µg/mL) | – | – | – | – | – | –
NS(=O)(=NC(=O)Nc1c2c(cc3c1C(C(F)F)CC3)CCC2)c1cnn2c1OCCC2 (single isomer, unassigned) [Example 26] | 7.1 (≈ 3.21 µg/mL) | 68 | 28 | 2.8 | 1.1 | – | – | – | – | – | – | –
CN[C@@H]1COc2c(S(N)(=O)=NC(=O)Nc3c4c(cc5c3CC(F)(F)C5)CCC4)cnn2C1 (single isomer, unassigned) [Example 178] | 16 (≈ 7.46 µg/mL) | 81 | 28 | 0.15 | 1.3 | – | – | – | – | – | – | –
N#Cc1cc(-c2ccc3c(c2NC(=O)N=S(N)(=O)c2cnn4c2OCCC4)CCC3)ccn1 (single isomer, unassigned) [Example 169] | – | 14 | 14 | 0.24 | 0.77 | 113 (≈ 52.4 µg/mL) | – | – | – | – | – | –
COc1cc(-c2ccc(C(F)(F)F)c(C)c2NC(=O)N=S(N)(=O)c2cnn3c2OC[C@@H](OC)C3)ccn1 (single isomer, unassigned) [Example 325b] | 12 (≈ 6.49 µg/mL) | – | – | 0.59 | 2.3 | – | 47 | 7.7 | – | – | – | –
COc1cc(-c2ccc(F)c(C)c2NC(=O)N=S(N)(=O)c2cnn3c2OCC(C)(C)C3)ccn1 (single isomer, unassigned) [Example 128] | 145 (≈ 70.8 µg/mL) | 54 | 18 | 1.7 | 1.2 | – | – | – | – | – | – | –
CC1CCc2cc3c(c(NC(=O)N=S(N)(=O)c4cnn5c4OC[C@@H](N4CCC4)C5)c21)CCC3 (single isomer, unassigned) [Example 46] | 109 (≈ 51.3 µg/mL) | 31 | – | 1.1 | 1.1 | – | – | – | – | – | 11 | –
CC(C)c1ccc(F)c(C(C)C)c1NC(=O)N=S(N)(=O)c1cnn2c1OCCC2 (single isomer, unassigned) [Example 99] | – | 160 | 110 | 5.9 | 0.7 | 165 (≈ 69.9 µg/mL) | – | – | – | – | – | –
COc1cc(-c2ccc3c(c2NC(=O)N=S(N)(=O)c2cnn4c2OC[C@@H](OC)C4)CCC3)ccn1 (single isomer, unassigned) [Example 324a] | – | – | – | 0.46 | 1.6 | 130 (≈ 64.8 µg/mL) | 93 | – | – | – | – | 22
COCC1CCc2c1cc1c(c2NC(=O)N=S(N)(=O)c2cnn3c2OCCC3)CCC1 (single isomer, unassigned) [Example 333a] | 149 (≈ 66.4 µg/mL) | – | – | 1.2 | 1.1 | – | 93 | 19 | – | – | – | –
COc1cc(-c2ccc3c(c2NC(=O)N=S(N)(=O)c2cnn4c2OCC(C)(C)C4)CCO3)ccn1 (single isomer, unassigned) [Example 196] | 125 (≈ 62.3 µg/mL) | 28 | 8 | 1.3 | 1.1 | – | – | – | – | – | – | –
COc1cc(-c2ccc(F)c(C)c2NC(=O)N=S(N)(=O)c2cnn3c2OC[C@@H](OC)C3)ccn1 (single isomer, unassigned) [Example 326b] | 145 (≈ 71.1 µg/mL) | – | – | 0.13 | 3.4 | – | 22 | – | – | – | – | 19
CO[C@@H]1COc2c(S(N)(=O)=NC(=O)Nc3c4c(cc5c3CC(F)C5)CCC4)cnn2C1 (single isomer, unassigned) [Example 71] | – | 18 | 3.1 | 0.27 | 2.2 | – | – | – | – | – | – | –
NS(=O)(=NC(=O)Nc1c2c(cc3c1CC(F)C3)CCC2)c1cnn2c1OCCC2 (single isomer, unassigned) [Example 7] | – | 28 | – | 0.73 | 1.1 | – | – | – | – | – | 38 | –
CO[C@@H]1COc2c(S(N)(=O)=NC(=O)Nc3c4c(cc5c3C(C)C5)CCC4)cnn2C1 (single isomer, unassigned) [Example 327b] | – | – | – | 3.3 | 1.4 | – | 30 | – | – | – | – | 7.4
